Laboratory results taken from patent publication US10806794B2, “Protease inhibitors having enhanced features” (priority 2008, dated 2020).
Where “and” joins values, the source holds several entries; their conditions need not be identical. Identical values can stand only once. Like-named read-outs stand apart in the source and are kept apart here.

Columns and labels:
HIV-1RF = assay: Anti-HIV cytoprotection in CEM-SS cells infected with HIV-1RF (XTT); type: cell-based; details: six days, XTT; read-out: CEM-SS/HIV-1RF EC50 ± SD
Experimental: To evaluate whether conjugated protease inhibitors retain the ability to protect against HIV-1 infection, CEM-SS cells infected with the RF strain of HIV-1 were treated with test compounds for six days, and then cell viability was monitored using the tetrazolium dye XTT. […] A value for Therapeutic Index (TI) was calculated as TC50/EC50.

HIV-1 HT/92/599 = assay: HIV-1 reverse transcriptase activity after infection of fresh human PBMCs; type: cell-based
Outline: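 PHA-P/IL-2-stimulated fresh human PBMCs infected with HIV-1; supernatant reverse transcriptase activity measured by tritiated TTP incorporation on poly rA/oligo dT, 90 min at 37° C. Toxicity from 7-day uninfected PBMC culture read by XTT; TI = TC50/EC50.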

[1] = Metabolic stability in human liver microsomes;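 on t1/2: microsomal protein 0.5 mg/mL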
Outline: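 Substrate depletion: compounds at 3 μM final with pooled mixed-sex human liver microsomes (0.5 mg/mL) in 0.1 M phosphate pH 7.4 at 37 °C. Remaining parent quantified by LC-MS/MS.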

[2] = test system: cynomolgus monkey hepatocytes; assay: Metabolic stability in cynomolgus monkey hepatocytes; type: in vitro ADME; details: 0.1 uM
PBMCs [3] = assay: PBMC cytotoxicity (XTT); type: cell-based, human; details: 7 days
Experimental: Mononuclear cells were isolated from fresh human peripheral blood cells by Ficoll-Hypaque density gradient by centrifugation at 600 g for 30 minutes. Banded peripheral blood mononuclear cells (PBMCs) were aspirated from the resulting interface and washed with phosphate buffered saline by low speed centrifugation. Cell viability was evaluated by Trypan Blue dye exclusion. […] Plates were incubated at 37° C., 5% CO2 for 7 days prior to cytotoxicity evaluation. XTT measurement for cytotoxicity.

PBMCs [4] = assay: PBMC macromolecule synthesis (tritiated precursor incorporation); type: cell-based, human
Experimental: Cellular macromolecule synthesis was evaluated using tritiated precursor incorporation assays. PBMCs (5×10^4 cells/well) were cultured in the presence or absence of test compound for 7 days at 37 C, 5% CO2 in a 96-well microtiter plate. On day 6 of the incubation, 1 uCi of [methyl-3H]-thymidine for DNA synthesis, [5-3H]-uridine for RNA synthesis, or [3,4,5-3H]-leucine for protein synthesis was added to compound-treated cells, and the plate was further incubated for 16 hours. The cells were transferred to a glass fiber filtermat using an Inotech cell harvester. The filtermats were washed with distilled water then sealed in a bag with scintillation fluid. Incorporated radioactivity was measured using a Wallac scintillation counter.

CYP3A4 = CYP3A4 (Homo sapiens (Human), UniProt P08684); assay: CYP450 inhibition in human liver microsomes: CYP3A4;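 further: incubation at 37 °C started by adding 1 mM NADPH, with formation of the probe metabolite measured via LC-MS/MS or fluorescent detection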
CYP2D6 = CYP2D6 (Homo sapiens (Human), UniProt P10635); assay: CYP450 inhibition in human liver microsomes: CYP2D6
CYP1A2 = CYP1A2 (Homo sapiens (Human), UniProt P05177); assay: CYP450 inhibition in human liver microsomes: CYP1A2
Sequence of CYP1A2 (P05177 whole entry): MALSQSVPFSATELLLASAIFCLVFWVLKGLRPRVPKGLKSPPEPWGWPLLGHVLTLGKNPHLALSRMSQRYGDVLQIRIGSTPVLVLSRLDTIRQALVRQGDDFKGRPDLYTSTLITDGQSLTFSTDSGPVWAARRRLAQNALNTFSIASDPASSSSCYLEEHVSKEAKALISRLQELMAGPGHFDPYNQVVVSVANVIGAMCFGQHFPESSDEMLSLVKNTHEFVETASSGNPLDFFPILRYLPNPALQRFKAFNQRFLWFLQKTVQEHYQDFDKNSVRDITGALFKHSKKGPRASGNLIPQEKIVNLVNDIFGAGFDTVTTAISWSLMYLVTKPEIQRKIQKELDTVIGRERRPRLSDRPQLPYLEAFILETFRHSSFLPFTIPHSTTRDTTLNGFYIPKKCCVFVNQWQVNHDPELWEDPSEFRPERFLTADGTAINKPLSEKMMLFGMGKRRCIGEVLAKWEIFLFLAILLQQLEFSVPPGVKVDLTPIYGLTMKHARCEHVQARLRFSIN

Sequence of CYP3A4 (P08684 whole entry): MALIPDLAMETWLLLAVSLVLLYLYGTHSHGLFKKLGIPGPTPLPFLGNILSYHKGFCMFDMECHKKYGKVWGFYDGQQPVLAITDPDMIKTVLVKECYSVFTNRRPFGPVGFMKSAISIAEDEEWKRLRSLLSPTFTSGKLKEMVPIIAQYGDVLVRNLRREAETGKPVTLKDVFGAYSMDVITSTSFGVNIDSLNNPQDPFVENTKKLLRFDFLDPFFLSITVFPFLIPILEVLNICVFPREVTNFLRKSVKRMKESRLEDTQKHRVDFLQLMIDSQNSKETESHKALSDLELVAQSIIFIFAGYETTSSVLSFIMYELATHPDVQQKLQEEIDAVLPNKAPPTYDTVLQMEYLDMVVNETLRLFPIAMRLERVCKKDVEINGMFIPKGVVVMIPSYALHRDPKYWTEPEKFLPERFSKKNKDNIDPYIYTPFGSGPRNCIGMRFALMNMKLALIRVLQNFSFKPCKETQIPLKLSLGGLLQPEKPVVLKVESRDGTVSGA
Sequence of CYP2D6 (P10635 whole entry): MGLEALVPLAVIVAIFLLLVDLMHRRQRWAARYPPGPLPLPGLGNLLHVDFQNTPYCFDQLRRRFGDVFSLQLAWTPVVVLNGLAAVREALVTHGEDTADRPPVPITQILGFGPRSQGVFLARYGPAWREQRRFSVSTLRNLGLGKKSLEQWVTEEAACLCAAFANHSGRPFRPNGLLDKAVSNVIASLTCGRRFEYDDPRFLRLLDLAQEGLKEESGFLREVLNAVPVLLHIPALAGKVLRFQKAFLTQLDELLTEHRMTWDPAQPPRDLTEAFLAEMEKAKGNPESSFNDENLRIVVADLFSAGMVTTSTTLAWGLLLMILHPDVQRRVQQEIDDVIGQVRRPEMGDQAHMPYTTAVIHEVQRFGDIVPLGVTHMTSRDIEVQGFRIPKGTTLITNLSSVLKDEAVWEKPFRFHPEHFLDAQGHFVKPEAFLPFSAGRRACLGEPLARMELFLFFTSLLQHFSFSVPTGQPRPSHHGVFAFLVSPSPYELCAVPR

## COCCOCCOCCOC(=O)NC(C(=O)NC(Cc1ccccc1)C(O)CN(Cc1ccc(-c2ccccn2)cc1)NC(=O)C(NC(=O)OC)C(C)(C)C)C(C)(C)C (centres unmarked) [mono-mPEG3-Atazanavir, {1-[N′-[2-Hydroxy-3-(2-{2-[2-(2-methoxy-ethoxy)-ethoxy]-ethoxycarbonylamino}-3,3-dimethyl-butyrylamino)-4-phenyl-butyl]-N′-(4-pyridin-2-yl-benzyl)-hydrazinocarbonyl]-2,2-dimethyl-propyl}-carbamic Acid Methyl Ester]
HIV-1RF
  EC50: 0.003 ± 0.002 µM
HIV-1 HT/92/599; Human immunodeficiency virus 1, PBMC, 168 h, read-out: PBMC/HIV-1HT/92/599 EC50 ± SD, seven days, reverse transcriptase activity
  EC50: < 0.02 µM
HIV-1 HT/92/599; read-out: PBMC/HIV-1HT/92/599 EC50 ± SD, seven days, reverse transcriptase activity
  EC50: 0.03 µM and 0.0204 µM and 0.02 µM and 0.0187 µM
[1]; both, human, pooled human liver microsomes, pH 7.4, CLint ± SEM, human liver microsomes
  microsomal CLint at 3 μM: 248 ± 31.7 µL/min/mg
[1]; both, human, pooled human liver microsomes, pH 7.4, t1/2, human liver microsomes
  half-life at 3 μM: 5.58 min
[1]; human liver microsomes, 3 μM
  CLint ± SEM: 172 ± 1.39 μL/min/mg protein
  t1/2: 8.04 min
[2]
  CLint ± SEM: 21.0 ± 0.00203 μL/min/10^6 cells
  t1/2: 65.9 min
PBMCs [3]
  XTT (PBMC) TC50: 338.9 µM
PBMCs [4]; DNA synthesis
  Thymidine Incorporation (PBMC) TC50: 36.6 µM
PBMCs [4]; RNA synthesis
  Uridine Incorporation (PBMC) TC50: 27.7 µM
PBMCs [4]; protein synthesis
  Leucine Incorporation (PBMC) TC50: 82.0 µM
CYP3A4; CYP3A4 IC50 Midazolam, probe substrate midazolam
  IC50: 2.85 µM
CYP3A4; CYP3A4 IC50 Testosterone, probe substrate testosterone
  IC50: 12.8 µM
CYP2D6
  IC50: > 25 µM
CYP1A2
  IC50: > 25 µM
